# Experimental data from ChEMBL document CHEMBL5696442, “Discovery of type II inhibitors of TGFβ-activated kinase 1 (TAK1) and mitogen-activated protein kinase kinase kinase kinase 2 (MAP4K2)” (J Med Chem, 2015).
# What was measured:
# [1] = target: T1, Mitogen-activated protein kinase kinase kinase 3 (Homo sapiens) (UniProt Q99759); assay: Inhibition of MAP3K3 Lys2 labeling site in human Huh-7 cell lysate at 1 uM by KiNativ Profiling analysis relative to control; type: subcellular
# T1 sequence (whole entry): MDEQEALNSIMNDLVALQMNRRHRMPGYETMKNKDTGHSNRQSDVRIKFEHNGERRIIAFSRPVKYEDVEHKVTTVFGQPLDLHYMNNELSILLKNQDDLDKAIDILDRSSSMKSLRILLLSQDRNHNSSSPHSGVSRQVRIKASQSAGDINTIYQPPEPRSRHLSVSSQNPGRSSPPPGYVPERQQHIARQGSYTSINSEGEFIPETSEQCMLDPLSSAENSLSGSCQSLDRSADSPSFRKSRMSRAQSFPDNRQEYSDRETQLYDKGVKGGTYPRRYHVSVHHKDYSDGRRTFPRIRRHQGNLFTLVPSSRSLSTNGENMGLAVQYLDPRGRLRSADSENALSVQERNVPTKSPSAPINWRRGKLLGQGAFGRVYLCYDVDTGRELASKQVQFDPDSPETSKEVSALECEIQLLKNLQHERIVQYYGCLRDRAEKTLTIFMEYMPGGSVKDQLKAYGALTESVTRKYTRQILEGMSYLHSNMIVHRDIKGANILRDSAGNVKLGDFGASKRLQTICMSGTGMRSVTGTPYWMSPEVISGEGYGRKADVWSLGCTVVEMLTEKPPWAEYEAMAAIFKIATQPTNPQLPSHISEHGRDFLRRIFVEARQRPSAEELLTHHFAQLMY
# [2] = target: Cyclin-dependent kinase 2 (Homo sapiens) (UniProt P24941); assay: Inhibition of CDK2 Lys2 labeling site harbouring DLKPQNLLINTEGAIK in human Huh-7 cells at 1 uM by KiNativ Profiling analysis relative to control; type: cell-based
# [3] = target: Microtubule-associated serine/threonine-protein kinase 1 (Homo sapiens) (UniProt Q9Y2H9); assay: Inhibition of MAST1 Lys2 labeling site in human Huh-7 cells at 1 uM by KiNativ Profiling analysis relative to control
# [4] = target: Calcium/calmodulin-dependent protein kinase type II subunit gamma (Homo sapiens) (UniProt Q13555); assay: Inhibition of CaMK2g Lys1 labeling site harbouring TSTQEYAAKIINTK in human Huh-7 cell lysate at 1 uM by KiNativ Profiling analysis relative to control; type: subcellular
# [5] = target: Wee1-like protein kinase (Homo sapiens) (UniProt P30291); assay: Inhibition of Wee1 Lys2 labeling site in human Huh-7 cell lysate at 1 uM by KiNativ Profiling analysis relative to control; type: subcellular
# [6] = target: Serine/threonine-protein kinase mTOR (Homo sapiens) (UniProt P42345); assay: Inhibition of MTOR (unknown origin) at 1 uM by Ambit Kinomescan binding assay relative to control
# [7] = target: Vascular endothelial growth factor receptor 3 (Homo sapiens) (UniProt P35916); assay: Inhibition of FLT4 (unknown origin) at 1 uM by Ambit Kinomescan binding assay relative to control; values are per cent of control
# [8] = target: Casein kinase I isoform alpha (Homo sapiens) (UniProt P48729); assay: Inhibition of CK1 alpha K2 labeling site in human Huh-7 cells at 1 uM by KiNativ Profiling analysis relative to control; type: cell-based
# [9] = target: Serine/threonine-protein kinase 10 (Homo sapiens) (UniProt O94804); assay: Inhibition of LOK Lys1 labeling site in human A-375 cells at 5 uM by KiNativ Profiling analysis relative to control; type: cell-based
# [10] = target: Fibroblast growth factor receptor 4 (Homo sapiens) (UniProt P22455); assay: Inhibition of FGFR4 (unknown origin) at 10 uM by Ambit Kinomescan binding assay relative to control
# [11] = target: Mitogen-activated protein kinase kinase kinase kinase 4 (Homo sapiens, UniProt O95819); assay: Inhibition of ZC1/HGK K1 labeling site harbouring TGQLAAIKVMDVTEDEEEEIKLEINMLKK in human Huh-7 cells at 1 uM by KiNativ Profiling analysis relative to control; type: cell-based
# [12] = target: T2, Mitogen-activated protein kinase kinase kinase 15 (Homo sapiens) (UniProt Q6ZN16); assay: Inhibition of MAP3K15 Lys1 labeling site harbouring IAIKEIPER in human A-375 cells at 5 uM by KiNativ Profiling analysis relative to control; type: cell-based
# T2 sequence (whole entry): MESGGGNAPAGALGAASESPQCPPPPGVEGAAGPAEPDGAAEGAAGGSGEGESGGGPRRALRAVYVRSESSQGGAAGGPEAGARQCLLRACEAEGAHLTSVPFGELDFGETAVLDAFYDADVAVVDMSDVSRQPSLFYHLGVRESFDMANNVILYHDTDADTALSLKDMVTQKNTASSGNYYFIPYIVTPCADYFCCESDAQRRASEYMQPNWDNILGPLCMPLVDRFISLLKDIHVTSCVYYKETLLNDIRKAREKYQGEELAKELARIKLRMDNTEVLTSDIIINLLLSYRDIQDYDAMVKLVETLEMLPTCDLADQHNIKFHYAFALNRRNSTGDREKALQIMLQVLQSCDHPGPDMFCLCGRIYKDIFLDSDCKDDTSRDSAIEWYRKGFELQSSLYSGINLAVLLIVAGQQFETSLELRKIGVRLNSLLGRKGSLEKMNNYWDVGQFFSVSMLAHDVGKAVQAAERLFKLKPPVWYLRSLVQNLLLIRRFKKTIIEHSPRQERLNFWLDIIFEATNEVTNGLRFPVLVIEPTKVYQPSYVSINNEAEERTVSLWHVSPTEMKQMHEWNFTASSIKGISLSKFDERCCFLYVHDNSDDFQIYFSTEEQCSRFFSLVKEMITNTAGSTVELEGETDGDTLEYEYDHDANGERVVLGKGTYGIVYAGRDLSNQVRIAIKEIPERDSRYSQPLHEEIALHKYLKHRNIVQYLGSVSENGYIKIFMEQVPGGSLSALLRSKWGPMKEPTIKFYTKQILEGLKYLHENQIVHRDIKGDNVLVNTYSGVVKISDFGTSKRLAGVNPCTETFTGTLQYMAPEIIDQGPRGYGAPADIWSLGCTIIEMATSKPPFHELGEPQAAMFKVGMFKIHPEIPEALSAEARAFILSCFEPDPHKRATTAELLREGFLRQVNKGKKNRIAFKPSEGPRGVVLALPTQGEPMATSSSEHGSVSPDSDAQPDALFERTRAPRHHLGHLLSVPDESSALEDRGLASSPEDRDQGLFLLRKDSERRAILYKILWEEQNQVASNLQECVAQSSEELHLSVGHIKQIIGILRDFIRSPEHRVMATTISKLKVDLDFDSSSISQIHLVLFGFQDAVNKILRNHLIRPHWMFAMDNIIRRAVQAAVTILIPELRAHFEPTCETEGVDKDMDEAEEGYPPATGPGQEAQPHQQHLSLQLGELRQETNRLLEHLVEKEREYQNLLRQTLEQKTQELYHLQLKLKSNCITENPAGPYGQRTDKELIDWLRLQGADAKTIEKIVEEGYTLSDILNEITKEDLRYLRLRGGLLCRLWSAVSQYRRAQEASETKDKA
# Chain of Fibroblast growth factor receptor 4 (Homo sapiens) (P22455 22-802 limits assumed): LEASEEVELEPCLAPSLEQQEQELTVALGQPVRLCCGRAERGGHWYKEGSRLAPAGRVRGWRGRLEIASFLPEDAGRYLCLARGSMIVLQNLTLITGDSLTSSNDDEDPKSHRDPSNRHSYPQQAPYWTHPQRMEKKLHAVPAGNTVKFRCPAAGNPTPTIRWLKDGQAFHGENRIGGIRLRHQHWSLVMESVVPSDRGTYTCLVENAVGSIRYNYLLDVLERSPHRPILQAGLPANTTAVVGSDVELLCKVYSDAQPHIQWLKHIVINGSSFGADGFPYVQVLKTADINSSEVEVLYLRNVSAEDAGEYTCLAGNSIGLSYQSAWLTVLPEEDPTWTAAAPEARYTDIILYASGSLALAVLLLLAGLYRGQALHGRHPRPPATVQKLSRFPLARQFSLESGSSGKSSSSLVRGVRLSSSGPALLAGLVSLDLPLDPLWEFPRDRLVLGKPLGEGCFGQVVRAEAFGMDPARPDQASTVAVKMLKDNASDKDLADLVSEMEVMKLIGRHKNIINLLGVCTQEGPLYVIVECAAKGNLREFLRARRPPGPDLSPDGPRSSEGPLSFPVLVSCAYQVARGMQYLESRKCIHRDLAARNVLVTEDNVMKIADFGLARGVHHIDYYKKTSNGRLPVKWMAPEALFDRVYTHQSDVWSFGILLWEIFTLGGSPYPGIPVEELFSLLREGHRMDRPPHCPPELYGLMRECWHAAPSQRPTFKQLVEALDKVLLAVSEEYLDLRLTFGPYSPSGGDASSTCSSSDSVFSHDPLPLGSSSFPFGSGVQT
# Chain of Vascular endothelial growth factor receptor 3 (Homo sapiens) (P35916 whole entry, canonical isoform): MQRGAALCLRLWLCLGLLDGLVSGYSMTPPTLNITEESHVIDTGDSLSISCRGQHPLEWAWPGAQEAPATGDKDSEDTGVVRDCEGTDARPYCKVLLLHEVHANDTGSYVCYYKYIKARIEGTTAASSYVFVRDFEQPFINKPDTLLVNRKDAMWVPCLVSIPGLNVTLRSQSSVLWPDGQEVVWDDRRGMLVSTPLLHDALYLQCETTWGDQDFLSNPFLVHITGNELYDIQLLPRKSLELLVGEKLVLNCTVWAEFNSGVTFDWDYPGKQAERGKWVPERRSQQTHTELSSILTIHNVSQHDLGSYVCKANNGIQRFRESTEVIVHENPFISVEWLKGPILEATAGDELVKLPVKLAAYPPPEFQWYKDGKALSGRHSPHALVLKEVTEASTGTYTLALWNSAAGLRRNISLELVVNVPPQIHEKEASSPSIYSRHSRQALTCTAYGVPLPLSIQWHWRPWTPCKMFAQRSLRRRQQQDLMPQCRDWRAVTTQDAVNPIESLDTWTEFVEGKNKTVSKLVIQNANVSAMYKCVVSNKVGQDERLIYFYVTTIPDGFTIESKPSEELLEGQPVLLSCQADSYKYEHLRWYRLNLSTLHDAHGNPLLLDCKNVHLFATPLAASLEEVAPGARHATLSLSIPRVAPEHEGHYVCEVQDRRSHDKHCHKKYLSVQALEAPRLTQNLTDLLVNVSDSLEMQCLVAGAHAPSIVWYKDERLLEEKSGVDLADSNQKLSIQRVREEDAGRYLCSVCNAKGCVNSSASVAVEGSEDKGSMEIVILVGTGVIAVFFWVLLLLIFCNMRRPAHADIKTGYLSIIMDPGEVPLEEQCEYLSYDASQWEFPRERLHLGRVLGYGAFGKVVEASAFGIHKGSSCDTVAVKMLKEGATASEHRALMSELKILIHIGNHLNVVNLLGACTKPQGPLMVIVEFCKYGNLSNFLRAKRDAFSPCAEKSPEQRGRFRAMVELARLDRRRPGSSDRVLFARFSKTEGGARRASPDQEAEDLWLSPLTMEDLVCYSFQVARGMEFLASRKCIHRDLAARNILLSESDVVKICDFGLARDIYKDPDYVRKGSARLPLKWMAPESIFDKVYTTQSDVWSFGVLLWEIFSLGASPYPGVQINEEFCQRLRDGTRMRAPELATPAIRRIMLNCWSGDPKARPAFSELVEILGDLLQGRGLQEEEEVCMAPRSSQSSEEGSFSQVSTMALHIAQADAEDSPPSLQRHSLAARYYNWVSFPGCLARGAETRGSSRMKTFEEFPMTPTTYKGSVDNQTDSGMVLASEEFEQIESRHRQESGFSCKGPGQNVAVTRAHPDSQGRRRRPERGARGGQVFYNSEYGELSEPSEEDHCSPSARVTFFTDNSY
# Chain of Mitogen-activated protein kinase kinase kinase kinase 4 (O95819 2-1239 limits assumed): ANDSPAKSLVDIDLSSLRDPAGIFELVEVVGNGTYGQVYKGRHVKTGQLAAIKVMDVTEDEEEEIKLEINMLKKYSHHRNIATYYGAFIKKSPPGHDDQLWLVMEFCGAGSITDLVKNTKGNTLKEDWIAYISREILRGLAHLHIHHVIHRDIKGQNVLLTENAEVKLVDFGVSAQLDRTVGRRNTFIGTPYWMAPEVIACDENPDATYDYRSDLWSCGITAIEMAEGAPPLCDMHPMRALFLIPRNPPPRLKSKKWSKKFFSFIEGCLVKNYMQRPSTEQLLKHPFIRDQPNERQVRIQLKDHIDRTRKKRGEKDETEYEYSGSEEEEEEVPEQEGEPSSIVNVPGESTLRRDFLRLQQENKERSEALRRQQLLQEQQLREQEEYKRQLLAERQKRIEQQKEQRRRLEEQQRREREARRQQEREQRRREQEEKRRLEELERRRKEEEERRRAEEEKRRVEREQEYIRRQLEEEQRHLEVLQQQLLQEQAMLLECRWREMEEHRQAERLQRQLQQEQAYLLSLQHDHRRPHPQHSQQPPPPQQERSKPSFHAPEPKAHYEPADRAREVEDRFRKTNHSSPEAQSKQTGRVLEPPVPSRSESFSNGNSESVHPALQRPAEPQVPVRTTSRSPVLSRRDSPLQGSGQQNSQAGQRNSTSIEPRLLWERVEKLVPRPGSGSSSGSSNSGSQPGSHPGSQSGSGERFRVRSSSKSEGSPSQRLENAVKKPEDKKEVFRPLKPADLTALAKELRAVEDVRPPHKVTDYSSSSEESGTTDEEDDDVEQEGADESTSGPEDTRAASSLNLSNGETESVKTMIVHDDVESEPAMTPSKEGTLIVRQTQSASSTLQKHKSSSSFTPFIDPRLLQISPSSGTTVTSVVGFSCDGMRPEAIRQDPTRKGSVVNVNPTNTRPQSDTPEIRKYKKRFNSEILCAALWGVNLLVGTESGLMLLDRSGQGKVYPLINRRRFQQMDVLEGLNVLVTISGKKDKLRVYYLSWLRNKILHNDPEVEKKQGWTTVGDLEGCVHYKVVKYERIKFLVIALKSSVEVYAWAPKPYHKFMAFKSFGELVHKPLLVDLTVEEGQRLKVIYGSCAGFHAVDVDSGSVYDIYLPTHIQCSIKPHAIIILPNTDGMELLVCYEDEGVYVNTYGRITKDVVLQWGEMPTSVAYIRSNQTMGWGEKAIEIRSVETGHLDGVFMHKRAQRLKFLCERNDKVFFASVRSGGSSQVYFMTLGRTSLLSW
# Chain of Wee1-like protein kinase (Homo sapiens) (P30291 whole entry, looked up): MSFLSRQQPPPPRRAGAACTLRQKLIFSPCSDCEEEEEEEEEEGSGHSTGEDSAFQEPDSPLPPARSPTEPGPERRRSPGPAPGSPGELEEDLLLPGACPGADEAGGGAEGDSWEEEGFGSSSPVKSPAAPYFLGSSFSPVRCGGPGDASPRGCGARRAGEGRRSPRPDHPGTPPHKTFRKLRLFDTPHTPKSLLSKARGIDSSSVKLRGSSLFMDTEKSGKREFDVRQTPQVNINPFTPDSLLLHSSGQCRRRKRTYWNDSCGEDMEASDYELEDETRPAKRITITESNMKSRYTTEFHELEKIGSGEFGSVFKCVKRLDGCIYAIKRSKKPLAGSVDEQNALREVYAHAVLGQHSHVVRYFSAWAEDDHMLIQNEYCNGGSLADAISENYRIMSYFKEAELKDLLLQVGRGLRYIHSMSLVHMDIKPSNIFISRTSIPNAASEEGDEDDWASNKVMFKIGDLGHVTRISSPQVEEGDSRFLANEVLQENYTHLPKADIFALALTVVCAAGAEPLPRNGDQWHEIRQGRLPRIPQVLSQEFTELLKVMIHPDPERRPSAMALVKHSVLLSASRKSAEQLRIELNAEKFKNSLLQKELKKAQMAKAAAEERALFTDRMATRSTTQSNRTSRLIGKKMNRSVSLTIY
# Chain of Serine/threonine-protein kinase 10 (Homo sapiens) (O94804 whole entry, looked up): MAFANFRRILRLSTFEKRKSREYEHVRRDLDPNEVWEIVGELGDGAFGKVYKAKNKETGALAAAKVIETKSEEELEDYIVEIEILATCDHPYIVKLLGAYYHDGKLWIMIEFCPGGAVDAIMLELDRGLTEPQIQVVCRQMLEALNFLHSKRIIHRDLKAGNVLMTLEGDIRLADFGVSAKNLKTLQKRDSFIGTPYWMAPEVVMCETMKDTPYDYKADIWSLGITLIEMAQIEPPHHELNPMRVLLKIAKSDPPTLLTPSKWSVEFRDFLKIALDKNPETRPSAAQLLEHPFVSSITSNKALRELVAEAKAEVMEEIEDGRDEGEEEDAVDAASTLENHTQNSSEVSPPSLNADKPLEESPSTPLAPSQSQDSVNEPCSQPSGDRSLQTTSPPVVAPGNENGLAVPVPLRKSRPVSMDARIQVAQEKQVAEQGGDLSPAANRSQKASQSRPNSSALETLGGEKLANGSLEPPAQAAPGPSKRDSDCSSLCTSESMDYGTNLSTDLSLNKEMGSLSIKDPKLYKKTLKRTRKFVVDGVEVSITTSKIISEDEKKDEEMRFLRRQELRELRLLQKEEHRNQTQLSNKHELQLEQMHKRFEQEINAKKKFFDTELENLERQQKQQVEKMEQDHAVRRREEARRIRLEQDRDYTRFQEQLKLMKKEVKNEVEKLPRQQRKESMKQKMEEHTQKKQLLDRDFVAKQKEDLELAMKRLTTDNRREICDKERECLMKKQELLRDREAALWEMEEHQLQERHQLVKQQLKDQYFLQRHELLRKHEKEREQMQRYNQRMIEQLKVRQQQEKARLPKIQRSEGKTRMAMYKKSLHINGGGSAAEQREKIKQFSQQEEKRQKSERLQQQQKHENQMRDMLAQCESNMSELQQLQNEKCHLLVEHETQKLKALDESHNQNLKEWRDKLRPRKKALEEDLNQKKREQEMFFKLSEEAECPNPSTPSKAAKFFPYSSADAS
smiles,measurement,setting,value
CNc1cc(Oc2cc(C(=O)Nc3cc(N4CCN(C)CC4)cc(C(F)(F)F)c3)ccc2C)ncn1,inhibition,[1],1.9%
same,inhibition,[2],-0.4%
same,inhibition,[3],53.8%
same,inhibition,[4],6%
same,inhibition,[5],-4.1%
CCN1CCN(Cc2ccc(NC(=O)c3ccc(C)c(/C=C/c4cnc5[nH]ccc5c4OC)c3)cc2C(F)(F)F)CC1,inhibition,[6],100%
same,residual activity,[7],26%
CCN1CCN(Cc2ccc(NC(=O)c3ccc(C)c(Oc4ccnc5[nH]ccc45)c3)cc2C(F)(F)F)CC1,inhibition,[8],2.9%
same,inhibition,[9],82.3%
same,inhibition,[10],0.45%
same,inhibition,[11],19.2%
same,inhibition,[12],-0.6%
